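Exposure lasted 48 hours, with cells grown in 96-well plates and compounds tested at five concentrations. The concentration for 50% growth inhibition is given as GI50. TGI is the concentration that stops growth completely.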
What was measured:
Assay in all cases: growth of human tumour cells (NCI), 48 h
[1] = system: MCF7 breast
[2] = system: HOP-92 NSCLC
[3] = system: OVCAR-4 ovarian
[4] = system: SR leukemia
[5] = system: SK-MEL-5 melanoma
[6] = system: OVCAR-8 ovarian
[7] = system: SK-OV-3 ovarian
[8] = system: ACHN renal
[9] = system: HCT-116 colon
[10] = system: HS 578T breast

Structure (SMILES): CN(Cc1cnc2nc(N)nc(N)c2n1)c1ccc(C(=O)NC(CCC(=O)O)C(=O)O)cc1 (stereo not given)
- TGI [1]: > 100 µM
- TGI [2]: > 100 µM
- GI50 [3]: > 100 µM
- TGI [3]: > 100 µM
- GI50 [4]: 0.05 µM
- TGI [4]: > 100 µM
- GI50 [5]: 0.443 µM
- TGI [5]: > 100 µM
- GI50 [6]: 0.0532 µM
- TGI [6]: > 100 µM
- GI50 [7]: 6.04 µM
- TGI [7]: > 100 µM
- GI50 [8]: 0.292 µM
- TGI [8]: > 100 µM
- GI50 [9]: 0.0416 µM
- TGI [9]: > 100 µM
- GI50 [10]: > 100 µM
- TGI [10]: > 100 µM

Structure (SMILES): C=C(C)[C@H]1CC/C(C)=C/CCC(C)C(=O)CC/C(CO)=C\[C@@H]1O (stereo not given in full)
- GI50 [1]: > 100 µM
- TGI [1]: > 100 µM
- GI50 [2]: 61.5 µM
- TGI [2]: > 100 µM
- GI50 [3]: 20.4 µM
- TGI [3]: > 100 µM
- GI50 [4]: > 100 µM
- TGI [4]: > 100 µM
- GI50 [5]: 40.7 µM
- TGI [5]: > 100 µM
- GI50 [6]: > 100 µM
- TGI [6]: > 100 µM
- GI50 [7]: > 100 µM
- TGI [7]: > 100 µM
- GI50 [8]: > 100 µM
- TGI [8]: > 100 µM
- GI50 [9]: 97.4 µM
- TGI [9]: > 100 µM
- GI50 [10]: 41.9 µM
- TGI [10]: > 100 µM

Structure (SMILES): O=c1[nH]c(-c2ccc(C(F)(F)F)cc2)nc2c1CSCC2
- GI50 [1]: > 100 µM
- TGI [1]: > 100 µM
- GI50 [2]: 17.1 µM
- TGI [2]: 46.3 µM
- GI50 [3]: 20.1 µM
- TGI [3]: > 100 µM
- GI50 [4]: > 100 µM
- TGI [4]: > 100 µM
- GI50 [5]: 88.9 µM
- TGI [5]: > 100 µM
- GI50 [6]: 26.3 µM
- TGI [6]: 99 µM
- GI50 [7]: 30 µM
- TGI [7]: 99.8 µM
- GI50 [8]: 32.9 µM
- TGI [8]: > 100 µM
- GI50 [9]: > 63.7 µM
- TGI [9]: > 100 µM
- GI50 [10]: 45.8 µM
- TGI [10]: > 100 µM

Structure (SMILES): O=C(NNS(=O)(=O)c1cc(C(F)(F)F)cc(C(F)(F)F)c1)c1cnn(-c2ccc(Cl)cc2)c1C(F)(F)F
- GI50 [1]: 21.5 µM
- TGI [1]: 58.9 µM
- GI50 [2]: 14.8 µM
- TGI [2]: 31.8 µM
- GI50 [3]: 38.3 µM
- TGI [3]: > 100 µM
- GI50 [4]: 19.4 µM
- TGI [4]: 42 µM
- GI50 [5]: 14.3 µM
- TGI [5]: 29.6 µM
- GI50 [6]: 16.1 µM
- TGI [6]: 51.7 µM
- GI50 [7]: 22.9 µM
- TGI [7]: 61.7 µM
- GI50 [8]: 21.6 µM
- TGI [8]: 51.2 µM
- GI50 [9]: 15.5 µM
- TGI [9]: 29.6 µM
- GI50 [10]: 18.4 µM
- TGI [10]: 44.6 µM

Structure (SMILES): CC/C=C\CCC/C=C1/C(=O)C=C[C@@H]1C/C=C\CCCC(=O)O
- GI50 [1]: 3.07 µM
- TGI [1]: 16.8 µM
- GI50 [2]: 13.2 µM
- TGI [2]: 27 µM
- GI50 [3]: 6.93 µM
- TGI [3]: 22.1 µM
- GI50 [4]: 1.92 µM
- TGI [4]: 8.57 µM
- GI50 [5]: 1.72 µM
- TGI [5]: 3.31 µM
- GI50 [6]: 2.96 µM
- TGI [6]: 9.87 µM
- GI50 [7]: 14.4 µM
- TGI [7]: 31.3 µM
- GI50 [8]: 1.89 µM
- TGI [8]: 3.61 µM
- GI50 [9]: 2.53 µM
- TGI [9]: 5.79 µM
- GI50 [10]: 13.7 µM
- TGI [10]: 59.3 µM

Structure (SMILES): COc1ccc(/C=C2\COc3ccc(-c4ccccc4)cc3C2=O)cc1O
- GI50 [1]: 1.58 µM
- TGI [1]: 13 µM
- GI50 [2]: 2.55 µM
- TGI [2]: 18.9 µM
- GI50 [3]: 4.18 µM
- TGI [3]: 30.8 µM
- GI50 [4]: 2 µM
- TGI [4]: > 100 µM
- GI50 [5]: 1.51 µM
- TGI [5]: 3.68 µM
- GI50 [6]: 2.43 µM
- TGI [6]: 6.56 µM
- GI50 [7]: 4.16 µM
- TGI [7]: 22.3 µM
- GI50 [8]: 3.13 µM
- TGI [8]: 13.1 µM
- GI50 [9]: 1.72 µM
- TGI [9]: 3.53 µM
- GI50 [10]: 2.72 µM
- TGI [10]: 7.56 µM

Structure (SMILES): Oc1ccc2ccccc2c1N=Nc1ccccc1
- TGI [1]: > 100 µM
- TGI [2]: > 100 µM
- TGI [3]: > 100 µM
- TGI [4]: > 100 µM
- TGI [5]: > 100 µM
- TGI [6]: > 100 µM
- TGI [7]: > 100 µM
- TGI [8]: > 100 µM
- TGI [9]: > 100 µM
- TGI [10]: > 100 µM

Structure (SMILES): Oc1ccccc1-n1c(-c2ccccc2)ccc1-c1ccccc1
- GI50 [1]: 5.08 µM
- TGI [1]: 16.5 µM
- GI50 [2]: 1.94 µM
- TGI [2]: 8.54 µM
- GI50 [3]: 7.24 µM
- TGI [3]: 23.3 µM
- GI50 [4]: 4.2 µM
- TGI [4]: 18 µM
- GI50 [5]: 3.05 µM
- TGI [5]: > 100 µM
- GI50 [6]: 12.1 µM
- TGI [6]: 29.6 µM
- GI50 [7]: 8.93 µM
- TGI [7]: > 100 µM
- GI50 [8]: 9.13 µM
- TGI [8]: 21.2 µM
- GI50 [9]: 4.71 µM
- TGI [9]: 16.6 µM
- GI50 [10]: 14 µM
- TGI [10]: > 100 µM

Structure (SMILES): Cn1ccnc1C(=O)/C=C/c1ccc(C(=O)Nc2nc3ccccc3[nH]2)cc1
- GI50 [1]: 0.9 µM
- TGI [1]: > 25 µM
- GI50 [2]: 6.28 µM
- TGI [2]: > 25 µM
- GI50 [3]: 1.12 µM
- TGI [3]: > 25 µM
- GI50 [4]: 0.956 µM
- TGI [4]: > 25 µM
- GI50 [5]: 18.4 µM
- TGI [5]: > 25 µM
- GI50 [6]: 8.99 µM
- TGI [6]: > 25 µM
- GI50 [8]: 11 µM
- TGI [8]: > 25 µM
- GI50 [9]: 1.5 µM
- TGI [9]: > 25 µM
- GI50 [10]: 5.99 µM
- TGI [10]: > 25 µM

Structure (SMILES): O=C1c2cc(CCl)sc2C(=O)c2ccsc21
- TGI [1]: 0.406 µM
- TGI [2]: 1.47 µM
- TGI [3]: 0.336 µM
- TGI [4]: 0.571 µM
- TGI [5]: 0.0821 µM
- TGI [6]: 0.674 µM
- TGI [7]: 3.36 µM
- TGI [8]: 1.25 µM
- TGI [9]: 0.39 µM
- TGI [10]: 0.498 µM

Structure (SMILES): COc1ccc2c(c1)OC13Oc4cc(OC)ccc4C=C1CCCC3=C2
- GI50 [1]: 4.8 µM
- TGI [1]: > 100 µM
- GI50 [2]: 4.46 µM
- TGI [2]: > 100 µM
- GI50 [3]: > 100 µM
- TGI [3]: > 100 µM
- GI50 [4]: 4.89 µM
- TGI [4]: > 100 µM
- GI50 [5]: 13.6 µM
- TGI [5]: > 100 µM
- GI50 [6]: > 100 µM
- TGI [6]: > 100 µM
- GI50 [7]: > 100 µM
- TGI [7]: > 100 µM
- GI50 [8]: > 100 µM
- TGI [8]: > 100 µM
- GI50 [10]: > 100 µM
- TGI [10]: > 100 µM

Structure (SMILES): Cn1c(=O)c2[nH]c(COc3ccc(C(C)(C)C)cc3)nc2n(C)c1=O
- GI50 [1]: 17.1 µM
- TGI [1]: 62.8 µM
- GI50 [2]: 0.428 µM
- TGI [2]: 30.6 µM
- GI50 [4]: 5.12 µM
- TGI [4]: 55.9 µM
- GI50 [5]: 4.68 µM
- TGI [5]: 20.6 µM
- GI50 [6]: 18.3 µM
- TGI [6]: 67.1 µM
- GI50 [7]: 51.6 µM
- TGI [7]: > 100 µM
- GI50 [8]: 9.58 µM
- TGI [8]: 89.8 µM
- GI50 [9]: 10.2 µM
- TGI [9]: > 100 µM
- GI50 [10]: 20.2 µM
- TGI [10]: > 100 µM

Structure (SMILES): c1ccc(-c2nc(N3CCNCC3)c3nc(-c4ccccc4)oc3n2)cc1
- GI50 [1]: 1.7 µM
- TGI [1]: 3.58 µM
- GI50 [2]: 1.5 µM
- TGI [2]: 3.1 µM
- GI50 [3]: 1.9 µM
- TGI [3]: 3.63 µM
- GI50 [4]: 0.298 µM
- TGI [4]: 1.2 µM
- GI50 [5]: 1.8 µM
- TGI [5]: 3.23 µM
- GI50 [7]: 2 µM
- TGI [7]: 3.71 µM
- GI50 [8]: 1.71 µM
- TGI [8]: 3.09 µM
- GI50 [9]: 1.25 µM
- TGI [9]: 2.9 µM
- GI50 [10]: 1.87 µM
- TGI [10]: 4.11 µM

Source: PubChem BioAssay (NCI)
